Reference: ChEMBL document CHEMBL3046519, “Synthesis and biological evaluation of some pyrazole derivatives as anti-inflammatoryantibacterial agents” (2012)
≈ marks a conversion by molar mass, not a printed value. Calls of active or inactive are those of the source. No cut-off for these calls is given here.

Key:
Rattus norvegicus [1] = experiment: Anti-inflammatory activity in Rattus norvegicus Wistar albino (rat) assessed as inhibition of carrageenan-induced paw edema at 50 mg/kg, po administered for 30 min prior to carrageenan challenge measured at 3 hr relative to control; format: functional
Rattus norvegicus [2] = experiment: Anti-inflammatory activity in Rattus norvegicus Wistar albino (rat) assessed as inhibition of carrageenan-induced paw edema at 50 mg/kg, po administered for 30 min prior to carrageenan challenge measured at 1 hr relative to control; format: functional
Rattus norvegicus [3] = experiment: Anti-inflammatory activity in Rattus norvegicus Wistar albino (rat) assessed as inhibition of carrageenan-induced paw edema at 50 mg/kg, po administered for 30 min prior to carrageenan challenge measured at 4 hr relative to control; format: functional
Staphylococcus aureus [4] = experiment: Antibacterial activity against Staphylococcus aureus MTCC 96 at 4 mg/ml after 24 hr by agar well diffusion method; format: functional; details: MTCC 96, 24 h, read-out: DIZ
Rattus norvegicus [5] = experiment: Anti-inflammatory activity in Rattus norvegicus Wistar albino (rat) assessed as inhibition of carrageenan-induced paw edema at 50 mg/kg, po administered for 30 min prior to carrageenan challenge measured at 2 hr relative to control; format: functional
Staphylococcus aureus [6] = experiment: Antibacterial activity against Staphylococcus aureus MTCC 96 by NCCLS broth macrodilution method; format: functional
Escherichia coli = experiment: Antibacterial activity against Escherichia coli MTCC 1652 at 4 mg/ml after 24 hr by agar well diffusion method; format: functional, organism-based
Bacillus subtilis [7] = experiment: Antibacterial activity against Bacillus subtilis MTCC 121 at 4 mg/ml after 24 hr by agar well diffusion method; format: functional; details: MTCC 121, 24 h, read-out: DIZ
Bacillus subtilis [8] = experiment: Antibacterial activity against Bacillus subtilis MTCC 121 by NCCLS broth macrodilution method; format: functional
Pseudomonas aeruginosa = details: MTCC 741, 4 mg/ml
Description: Antibacterial activity against Pseudomonas aeruginosa MTCC 741 at 4 mg/ml after 24 hr by agar well diffusion method

Row | SMILES | inhibition in vivo at 50 mg/kg (Rattus norvegicus [1]) [%] | inhibition in vivo at 50 mg/kg (Rattus norvegicus [2]) [%] | inhibition in vivo at 50 mg/kg (Rattus norvegicus [3]) [%] | zone of inhibition at 4000 µg/mL (Staphylococcus aureus [4]) [mm] | inhibition in vivo at 50 mg/kg (Rattus norvegicus [5]) [%] | MIC (Staphylococcus aureus [6]) [µg/mL] | diameter of the inhibition zone (DIZ) (Escherichia coli) | zone of inhibition at 4000 µg/mL (Bacillus subtilis [7]) [mm] | MIC (Bacillus subtilis [8]) [µg/mL] | DIZ (Pseudomonas aeruginosa)
1 | NS(=O)(=O)c1ccc(-n2cc(/C=N/Nc3nc(-c4ccccc4)cs3)c(-c3ccccc3)n2)cc1 | 69 | 33 | 72 | 14.3 | 71 | > 128 | inactive | 14.6 | > 128 | inactive
2 | NC(=S)N/N=C/c1cn(-c2ccc(S(N)(=O)=O)cc2)nc1-c1ccccc1 | 67 | 35 | 63 | 17 | 59 | 128 (≈ 320 µM) | inactive | 19.6 | 64 (≈ 160 µM) | inactive
3 | Cc1ccc(-c2csc(N/N=C/c3cn(-c4ccc(S(N)(=O)=O)cc4)nc3-c3ccc(C)cc3)n2)cc1 | 75 | 24 | 61 | 13.6 | 72 | > 128 | inactive | 14 | > 128 | inactive
4 | Cc1ccc(-c2nn(-c3ccc(S(N)(=O)=O)cc3)cc2/C=N/Nc2nc(-c3ccccc3)cs2)cc1 | 75 | 33 | 56 | 15.3 | 60 | > 128 | inactive | 13.6 | > 128 | inactive
5 | Cc1ccc(-c2nn(-c3ccc(S(N)(=O)=O)cc3)cc2/C=N/NC(N)=S)cc1 | 75 | 32 | 70 | 16.3 | 72 | > 128 | inactive | 14.3 | > 128 | inactive
6 | COc1ccc(-c2nn(-c3ccc(S(N)(=O)=O)cc3)cc2/C=N/NC(N)=S)cc1 | 59 | 28 | 71 | 13.6 | 76 | > 128 | inactive | 15 | > 128 | inactive
7 | NS(=O)(=O)c1ccc(-n2cc(/C=N/Nc3nc(-c4ccc(Cl)cc4)cs3)c(-c3ccc(F)cc3)n2)cc1 | 73 | 35 | 75 | 14.3 | 29 | > 128 | inactive | 13.3 | > 128 | inactive
8 | Cc1ccc(-c2csc(N/N=C/c3cn(-c4ccc(S(N)(=O)=O)cc4)nc3-c3ccc(Cl)cc3)n2)cc1 | 70 | 5 | 73 | 15.3 | 61 | > 128 | inactive | 14.6 | > 128 | inactive
9 | NS(=O)(=O)c1ccc(-n2cc(/C=N/Nc3nc(-c4ccc(Cl)cc4)cs3)c(-c3ccc(Cl)cc3)n2)cc1 | 73 | 28 | 58 | 14.6 | 67 | > 128 | inactive | 15 | > 128 | inactive
10 | NC(=S)N/N=C/c1cn(-c2ccc(S(N)(=O)=O)cc2)nc1-c1ccc(Cl)cc1 | 77 | 33 | 71 | 14 | 76 | > 128 | inactive | 13.6 | > 128 | inactive
11 | COc1ccc(-c2nn(-c3ccc(S(N)(=O)=O)cc3)cc2/C=N/Nc2nc(-c3ccccc3)cs2)cc1 | 61 | 32 | 61 | 15.3 | 65 | > 128 | inactive | 15.6 | > 128 | inactive
12 | COc1ccc(-c2nn(-c3ccc(S(N)(=O)=O)cc3)cc2/C=N/Nc2nc(-c3ccc(C)cc3)cs2)cc1 | 72 | 37 | 70 | 20.6 | 65 | 64 (≈ 118 µM) | inactive | 17.3 | 128 (≈ 235 µM) | inactive
13 | NC(=S)N/N=C/c1cn(-c2ccc(S(N)(=O)=O)cc2)nc1-c1ccc(F)cc1 | 73 | 24 | 75 | 15.6 | 75 | > 128 | inactive | 15.3 | > 128 | inactive
14 | Cc1ccc(-c2nn(-c3ccc(S(N)(=O)=O)cc3)cc2/C=N/Nc2nc(-c3ccc(Cl)cc3)cs2)cc1 | 60 | 32 | 57 | 14.6 | 60 | > 128 | inactive | 15.3 | > 128 | inactive
15 | NS(=O)(=O)c1ccc(-n2cc(/C=N/Nc3nc(-c4ccccc4)cs3)c(-c3ccc(Cl)cc3)n2)cc1 | 57 | 22 | 56 | 13.3 | 62 | > 128 | inactive | 15.6 | > 128 | inactive
16 | Cc1ccc(-c2csc(N/N=C/c3cn(-c4ccc(S(N)(=O)=O)cc4)nc3-c3ccccc3)n2)cc1 | 57 | 28 | 60 | 15 | 65 | > 128 | inactive | 14.6 | > 128 | inactive
17 | NS(=O)(=O)c1ccc(-n2cc(/C=N/Nc3nc(-c4ccc(Cl)cc4)cs3)c(-c3ccccc3)n2)cc1 | 75 | 32 | 70 | 13.6 | 72 | > 128 | inactive | 15.3 | > 128 | inactive
18 | Cc1ccc(-c2csc(N/N=C/c3cn(-c4ccc(S(N)(=O)=O)cc4)nc3-c3ccc(F)cc3)n2)cc1 | 73 | 33 | 70 | 15.6 | 72 | > 128 | inactive | 14.3 | > 128 | inactive
19 | COc1ccc(-c2nn(-c3ccc(S(N)(=O)=O)cc3)cc2/C=N/Nc2nc(-c3ccc(Cl)cc3)cs2)cc1 | 69 | 32 | 71 | 13.6 | 66 | > 128 | inactive | 14.3 | > 128 | inactive
20 | NS(=O)(=O)c1ccc(-n2cc(/C=N/Nc3nc(-c4ccccc4)cs3)c(-c3ccc(F)cc3)n2)cc1 | 65 | 11 | 56 | 14.6 | 60 | > 128 | inactive | 16.6 | > 128 | inactive
